The target of the test is Ras-related C3 botulinum toxin substrate 1 (Homo sapiens) (UniProt P63000). The experiment in a line: analog inhibition of wildtype Rac1 nucleotide loading – biochemical, additional analogs, multiplex bead flow cytometry, SAR follow-up (AID 2040). The note with it: Rac1 GTP binding; for pKi: measured here: Ki derived from EC50. In general terms: In flow cytometry, cells or beads pass a laser one at a time.

Structures are written as SMILES. pKi: −log10 of the molar value. Calls of active or inactive are those of the source. The rule behind the calls is not given here.

Among the data in PubChem BioAssay AID2040 (NMMLSC, 2009) are EC50 and Ki values, retold here.

In the case of `O=C1C(c2c(O)[nH]c3ccccc23)=Nc2ccccc21`, the EC50 – broadly, the midpoint of the concentration-response curve – is > 30 µM (inactive).

Take `CSc1ccc(/C=C2/C(C)=C(CC(=O)O)c3cc(F)ccc32)cc1`: the pKi (in general, the Ki on a negative log10 scale, so that one unit is a factor of ten) is 5.29.

Consider `O=Nc1c(-c2c(O)[nH]c3c(Br)cccc23)[nH]c2ccccc12`, for which the EC50 is > 30 µM (inactive).

Regarding `O=Nc1c(-c2c(O)[nH]c3ccccc23)[nH]c2ccccc12`, the EC50 was > 30 µM (inactive).

As for `O=Nc1c(-c2c(O)[nH]c3c(Cl)cccc23)[nH]c2ccccc12`, the EC50 was > 30 µM (inactive).

As for `O=C1N=c2ccccc2=C1c1[nH]c(=S)[nH]c1O`, the EC50 entry was “inactive” and the pKi is 6.80.

As to `O=C1N=c2ccccc2=C1c1[nH]c(=O)[nH]c1O`, the EC50 result was “inactive” and the pKi was 6.60.

Turning to `O=Nc1c(-c2c(O)[nH]c3ccc(Br)cc23)[nH]c2ccccc12`, the EC50 was > 30 µM (inactive).

For `O=Nc1c(-c2c(O)[nH]c3c(F)cccc23)[nH]c2ccccc12`, the EC50 was > 30 µM (inactive).

Regarding `O=C1C(c2c(O)[nH]c3ccc(Br)cc23)=Nc2ccccc21`, the EC50 result is “inactive” and the pKi was 5.82.

On to `O=C1C(c2c(O)[nH]c3c(F)cccc23)=Nc2ccccc21`, for which the EC50 result was “inactive” and the pKi is 5.49.

Take `O=C1C(c2c(O)[nH]c3c(Br)cccc23)=Nc2ccccc21`: the EC50 was > 30 µM (inactive).

For the compound `O=C1C(c2c(O)[nH]c3c(Cl)cccc23)=Nc2ccccc21`, the EC50 is > 30 µM (inactive).

For the compound `O=C1Nc2cccc(Br)c2/C1=C1/Cc2ccccc2C1=O`, the pKi was 5.95.

Turning to `COc1cc(-c2c(C#N)c(N)n(S(=O)(=O)c3c(C(C)C)cc(C(C)C)cc3C(C)C)c2C(=O)c2ccccc2)cc(OC)c1OC`, the pKi was 5.15.

Compound `COc1ccc(S(=O)(=O)n2c(N)c(C#N)c(-c3cncc(Br)c3)c2C(=O)c2ccccc2)cc1` showed a pKi of 6.04.
